Experimental data: patent US9764046B2, “Labeling composition for intraocular tissue, labeling method of intraocular tissue, and screening method” (CANON KABUSHIKI KAISHA, priority 2008, dated 2017)

Assays:
[1] = tested on: fundus (retina) of Zebrafish fry; assay: In vivo intraocular observation of the fundus of living Zebrafish fry by confocal microscope; settings: 1 μg/mL, 1 hour exposure;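 further: +++ photoreceptor and inner retinal layers stained ++ mainly photoreceptor layer − none seen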
Experimental: In an arbitrary well of a 24-well multiplate, were put 1 mL of Staining Liquid 2 and a fry of Zebrafish, and the plate was left to stand for 1 hour. A process of removing Staining Liquid 2 in the well and replacing it by 1 mL of distilled water was then performed 3 times.
The fry was then put in a 0.7% agarose solution and placed on a slide glass to observe the fundus of the fry through a confocal microscope.

[2] = tested on: intraocular tissue (retinal tissue incl. photoreceptor cell layer, vitreous body) of Zebrafish 7-day-old embryo; assay: Staining of intraocular tissue of Zebrafish fry by exposure to staining liquid, ocular tissue section observed by confocal microscope; format: in vivo; settings: Zebrafish 7 dpf fry, 1 μg/mL, 1 hour exposure, fixed ocular section
[3] = Excitation and fluorescence wavelengths by fluorescence spectrometer FL4500; format: physicochemical; settings: in nm (unit assumed)
[4] = tested on: photoreceptor cell layer in tissue section of the Zebrafish eyeball; assay: Stained slide of frozen tissue section of Zebrafish eyeball, co-staining with anti-Zpr-1 or anti-Zpr-3 antibody
From the text: After an eyeball of a fry of Zebrafish 7-day-old embryo (7 dpf) was immobilized with a PBS solution of 4% paraformaldehyde (PFA), the solution was replaced by a PBS solution of 30% sucrose, and the eyeball was embedded in an OCT compound (product of Tissue-Tek Co.) and frozen with liquid nitrogen. The frozen sample was sliced into a 7-1 μm section by Cryostat (Tissue•Tek Cryo 3, manufactured by Sakura Finetek Japan Co., Ltd.) and extended on a MAS-coated slide glass (product of […] GLASS IND., LTD) to obtain a tissue section slide of the Zebrafish eyeball. The slide glass was treated with a blocking solution (Blocking One, product of Nakarai Co.) for 30 minutes at room temperature, and an anti-Zpr-1 antibody (which stains red and green cone cells) diluted with PBS was mounted as a primary antibody on the slide glass and treated for 12 hours at 4° C. The slide glass was then washed 3 times with PBST for 10 minutes, and a secondary antibody (Alexa 488-anti-mouse IgG antibody) and 1 μg/mL of Compound 5 were diluted with PBS and mounted on the slide glass for 1 hour at room temperature. The slide glass was washed 3 times with PBST for 10 minutes, Fluoromount G (product of Southem Biotechnology Co.) was mounted thereon, and a cover glass was placed thereon. The thus-obtained stained slide of the tissue section of the Zebrafish eye ball was observed through a confocal microscope.
A stained slide of a tissue section of a Zebrafish eye ball was prepared according to the same process as in Example 120 except that the primary antibody used in Example 120 was changed to an anti-Zpr-3 antibody (which stains rod cells), and observed through a confocal microscope.

retina of B10 mouse = assay: Staining of mouse intraocular tissue after administration to the abdominal cavity; format: in vivo; settings: 3-month-old B10 mouse, 0.2 mL of 10 mg/mL supernatant to abdominal cavity, eyeball taken after 1 hour
Experimental: Staining compound 81 was added to an equimolar amount of a NaOH solution so as to give a concentration of 10 mg/mL, and the resultant mixture was centrifuged for 5 minutes at 14 krpm to obtain a supernatant. To an abdominal cavity of a 3-month-old B10 mouse, was administered 0.2 mL of this supernatant at one time. After 1 hour, the thus-treated animal was sacrificed under anesthesia by diethyl ether, and an eyeball thereof was taken out. The eyeball taken was embedded in an OCT compound and frozen in isopentane chilled with liquid nitrogen. This eyeball was sliced into a thickness of about 5 μm in a cryostat chilled to −20° C., and this slice was placed on a slide glass and dried to prepare a section of an ocular tissue. The thus-prepared ocular tissue section was observed through a confocal microscope (Pascal Exciter, manufactured by Zeiss Co.).

[5] = aqueous solution: 10 mg/mL DMSO solution diluted to 1/500 with purified water (Examples 1 to 94)
[6] = Comparative Examples, solvent not stated

Row | SMILES | Result of observation (staining ability, in vivo fundus) [1] | Staining ability [2] | λem (fluorescence wavelength) [3, 5] | λex (excitation wavelength) [3, 5] | Overlap of stained images with anti-Zpr-1 antibody (red and green cone cells) in the photoreceptor cell layer ([4]; Example 120, 1 μg/mL on frozen section) | Overlap of stained images with anti-Zpr-3 antibody (rod cells) in the photoreceptor cell layer ([4]; Example 121, 1 μg/mL on frozen section) | Selectivity of staining within the photoreceptor cell layer ([4]; Examples 120 and 121) | Staining of photoreceptor cell layer and of red and green cone cells ([4]; conclusion from Example 120) | Cell types stained in the photoreceptor cell layer ([4]; conclusion from Example 121) | Staining ability to the retina (retina of B10 mouse) | λem (fluorescence wavelength) [3, 6] | λex (excitation wavelength) [3, 6]
1 | CCN(CC)c1ccc2cc3c(oc2c1)c(C#N)c(=N)n1c2ccccc2nc31 [Compound 5] | +++ | +++ | 577 | 556 | did not overlap | partially overlapped | selectively stains a part of the cell types in the photoreceptor cell layer or of the cell bodies existing in the photoreceptor cell layer | has staining ability to the photoreceptor cell layer but does not stain the red and green cone cells in the photoreceptor cell layer | has stained the rod cells and at least one kind of cell type of blue or ultraviolet cone cells |  |  | 
2 | CSc1ccc(N2c3ccc(/C=C4/SC(=S)N(CC(=O)O)C4=O)cc3C3CCCC32)cc1 (stereo not shown) [Compound 66] | ++ | +++ | 636 | 527 |  |  |  |  |  |  |  | 
3 | CCN1c2ccc(/C=C3/SC(=S)N(CCC(=O)O)C3=O)cc2C2CCCC21 (stereo not shown) [Compound 81] | +++ | ++ | 604 | 576 |  |  |  |  |  | has staining ability to the retina |  | 
4 | CC1(C)C(/C=C/C=C/C=C/C=C2\N(CCCCS(=O)(=O)O)c3ccc4ccccc4c3C2(C)C)=[N+](CCCCS(=O)(=O)[O-])c2ccc3ccccc3c21 [ICG, indocyanine green, reference compound] | − | − |  |  |  |  |  |  |  |  | 811 | 784
